Blank lines part the entries; values can stand above or below the compound they belong to. The source made the active and inactive calls.
Columns and labels:
Genome polyprotein = Genome polyprotein (dengue virus type 2, UniProt P29990); test: Dengue-2 NS5 methyltransferase inhibitors, primary screen, biochemical, confirmation dose response (AID 588689); format: functional
[1] = target: T1, Polyadenylate-binding protein 1 (Homo sapiens, UniProt P11940); test: PABP1 MLLE–PAM2 interaction inhibitors, dose response, miRNA deadenylation inhibitor project, biochemical, fluorescence polarization, Cy5-PAM2 peptide, secondary (AID 602260); format: functional; conditions: read-out: IC50_Mean
[2] = target: T1, Polyadenylate-binding protein 1; test: PABP1 MLLE–PAM2 binding inhibitor potency, dose response, biochemical, fluorescence polarization, FITC-PAM2 peptide (AID 602259); format: functional; conditions: read-out: IC50_Mean
[3] = target: T2, Rac GTPase-activating protein 1 (Homo sapiens, UniProt Q9H0H5); test: MgcRacGAP GTPase-activating activity inhibitors, confirmation, biochemical, ADP Hunter fluorescence, primary and confirmatory (AID 624330); format: functional
T2 sequence (Q9H0H5 whole entry): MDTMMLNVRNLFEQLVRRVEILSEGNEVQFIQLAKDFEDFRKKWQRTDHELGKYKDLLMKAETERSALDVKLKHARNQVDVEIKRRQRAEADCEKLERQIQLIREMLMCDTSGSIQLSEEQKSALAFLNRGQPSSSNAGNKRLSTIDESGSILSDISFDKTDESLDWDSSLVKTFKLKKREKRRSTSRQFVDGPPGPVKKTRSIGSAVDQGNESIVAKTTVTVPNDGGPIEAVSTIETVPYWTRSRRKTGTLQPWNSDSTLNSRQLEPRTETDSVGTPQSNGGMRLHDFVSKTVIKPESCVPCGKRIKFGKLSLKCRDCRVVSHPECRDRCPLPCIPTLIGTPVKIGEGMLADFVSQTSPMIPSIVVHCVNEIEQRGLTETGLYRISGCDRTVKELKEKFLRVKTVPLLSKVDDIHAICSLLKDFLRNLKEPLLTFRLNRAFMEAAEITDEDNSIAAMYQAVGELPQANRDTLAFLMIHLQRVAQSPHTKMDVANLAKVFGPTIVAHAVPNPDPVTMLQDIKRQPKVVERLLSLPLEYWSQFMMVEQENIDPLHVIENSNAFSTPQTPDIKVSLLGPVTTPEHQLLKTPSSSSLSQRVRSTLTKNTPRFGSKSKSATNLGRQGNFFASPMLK

Fatty acid synthase [4] = target: T3, Fatty acid synthase (Homo sapiens, UniProt P49327); test: FAS thioesterase domain inhibitors, dose response, biochemical, endpoint fluorescence intensity, uHTS hits (AID 624327); format: functional;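 further: fluorescence from hydrolysis of an O-methyl fluorescein acyl ester substrate by the enzyme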
Fatty acid synthase [5] = target: T3, Fatty acid synthase; test: FAS thioesterase domain inhibitors, dose response, biochemical, kinetic fluorescence intensity (AID 624326); format: functional;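 further: rate of fluorescence rise from hydrolysis of a fluorogenic O-methyl fluorescein ester substrate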
[6] = target: Voltage-dependent T-type calcium channel subunit alpha-1H (Homo sapiens, UniProt O95180); format: functional;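 further: channel activity triggered by adding a high calcium stimulation buffer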
[7] = inhibitors of HIV Env-driven cell fusion, dose response, cherry-pick (AID 652057); format: functional, cell-based
[8] = ZM109 Env clade C HIV-1 fusion inhibitors, dose response, HeLa effector, CEM target cells, luciferase, cherry-pick (AID 652058); format: functional, cell-based
[9] = inhibitors of clade B AD8 Env fusion, dose response, cell-based, cherry-pick (AID 652062); format: functional;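 further: luciferase signal from cell-cell fusion driven by HIV-1 clade B AD8 Env; potency is for inhibitors of fusion seen as a drop in luminescence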
Cytochrome P450 1A2 = target: T4, Cytochrome P450 1A2 (Homo sapiens, UniProt P05177);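 further: PubChem cytochrome P450 panel assay, CYP1A2 panel member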
T4 sequence (P05177 whole entry): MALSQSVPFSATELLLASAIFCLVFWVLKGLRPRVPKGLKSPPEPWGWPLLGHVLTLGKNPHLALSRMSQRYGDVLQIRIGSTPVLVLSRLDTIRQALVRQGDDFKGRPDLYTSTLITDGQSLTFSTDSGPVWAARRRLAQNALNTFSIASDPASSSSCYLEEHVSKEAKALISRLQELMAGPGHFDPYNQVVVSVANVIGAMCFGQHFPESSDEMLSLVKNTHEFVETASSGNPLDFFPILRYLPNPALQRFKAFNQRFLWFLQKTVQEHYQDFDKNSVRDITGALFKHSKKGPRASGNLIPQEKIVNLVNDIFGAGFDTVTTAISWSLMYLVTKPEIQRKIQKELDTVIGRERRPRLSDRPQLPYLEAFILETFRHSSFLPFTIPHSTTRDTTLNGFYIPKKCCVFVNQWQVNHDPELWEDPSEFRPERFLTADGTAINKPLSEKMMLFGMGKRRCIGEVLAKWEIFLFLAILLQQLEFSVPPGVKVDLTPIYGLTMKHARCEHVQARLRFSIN

Cytochrome P450 3A4 = Cytochrome P450 3A4 (Homo sapiens, UniProt P08684);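 further: CYP3A4 tested as one member of a cytochrome P450 panel screen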
[10] = target: T5, Short transient receptor potential channel 4 (Mus musculus, UniProt Q9QUQ5); test: mouse TRPC4 channel inhibitors, dose response, cell-based, HEK293 TRPC4/mu-opioid, Fluo-4 calcium (AID 434942); format: functional;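 further: potency of inhibitors blocking the TRPC4 calcium response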
T5 sequence (Q9QUQ5 whole entry): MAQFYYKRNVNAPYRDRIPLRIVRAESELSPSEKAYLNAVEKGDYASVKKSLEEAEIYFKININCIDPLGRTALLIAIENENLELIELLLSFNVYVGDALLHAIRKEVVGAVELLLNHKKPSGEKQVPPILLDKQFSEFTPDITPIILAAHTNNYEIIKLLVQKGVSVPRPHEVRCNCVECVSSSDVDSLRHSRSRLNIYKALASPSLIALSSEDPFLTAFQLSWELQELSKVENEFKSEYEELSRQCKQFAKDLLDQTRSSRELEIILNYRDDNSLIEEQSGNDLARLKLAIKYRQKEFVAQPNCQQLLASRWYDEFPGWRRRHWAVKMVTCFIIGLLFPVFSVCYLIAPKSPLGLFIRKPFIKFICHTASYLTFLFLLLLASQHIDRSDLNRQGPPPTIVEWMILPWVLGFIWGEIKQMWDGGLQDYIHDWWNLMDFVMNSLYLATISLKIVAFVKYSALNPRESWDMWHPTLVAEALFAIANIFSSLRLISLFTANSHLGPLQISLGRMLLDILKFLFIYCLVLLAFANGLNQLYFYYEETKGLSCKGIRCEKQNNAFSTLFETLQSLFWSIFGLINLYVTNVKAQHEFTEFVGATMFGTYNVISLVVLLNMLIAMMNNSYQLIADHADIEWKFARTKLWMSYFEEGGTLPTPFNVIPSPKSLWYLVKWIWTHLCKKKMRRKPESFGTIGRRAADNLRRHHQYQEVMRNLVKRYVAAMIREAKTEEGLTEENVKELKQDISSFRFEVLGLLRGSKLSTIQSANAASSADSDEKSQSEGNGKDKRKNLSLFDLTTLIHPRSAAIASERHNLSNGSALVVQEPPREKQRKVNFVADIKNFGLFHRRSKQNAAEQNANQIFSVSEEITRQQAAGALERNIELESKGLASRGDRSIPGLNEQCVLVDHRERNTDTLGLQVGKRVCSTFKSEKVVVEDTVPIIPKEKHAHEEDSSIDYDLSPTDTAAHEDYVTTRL

[11] = THP-1 cell cytotoxicity, dose response, cytotoxicity control for Vif-APOBEC3G degradation inhibitor project, THP-1 cells (AID 1117359); format: functional; conditions: Human immunodeficiency virus 1, THP-1

T1 sequence (P11940 whole entry): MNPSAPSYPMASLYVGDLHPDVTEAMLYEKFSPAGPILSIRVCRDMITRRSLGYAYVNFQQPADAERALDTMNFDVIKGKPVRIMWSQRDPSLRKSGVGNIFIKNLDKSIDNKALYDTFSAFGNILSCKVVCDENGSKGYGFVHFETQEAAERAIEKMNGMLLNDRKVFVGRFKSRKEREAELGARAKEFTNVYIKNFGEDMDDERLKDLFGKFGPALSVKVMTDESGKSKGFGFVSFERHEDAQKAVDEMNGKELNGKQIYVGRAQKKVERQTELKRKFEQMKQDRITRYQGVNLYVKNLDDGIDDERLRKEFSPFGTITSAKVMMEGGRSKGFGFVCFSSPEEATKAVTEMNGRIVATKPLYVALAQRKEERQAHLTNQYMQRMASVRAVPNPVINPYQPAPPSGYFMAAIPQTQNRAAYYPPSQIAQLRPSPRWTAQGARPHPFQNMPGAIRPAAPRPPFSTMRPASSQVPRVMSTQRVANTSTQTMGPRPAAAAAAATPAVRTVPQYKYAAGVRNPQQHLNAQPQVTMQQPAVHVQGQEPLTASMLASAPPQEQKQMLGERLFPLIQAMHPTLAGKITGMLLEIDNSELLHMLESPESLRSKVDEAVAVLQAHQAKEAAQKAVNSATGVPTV
T3 sequence (P49327 whole entry, the tested form may be a part): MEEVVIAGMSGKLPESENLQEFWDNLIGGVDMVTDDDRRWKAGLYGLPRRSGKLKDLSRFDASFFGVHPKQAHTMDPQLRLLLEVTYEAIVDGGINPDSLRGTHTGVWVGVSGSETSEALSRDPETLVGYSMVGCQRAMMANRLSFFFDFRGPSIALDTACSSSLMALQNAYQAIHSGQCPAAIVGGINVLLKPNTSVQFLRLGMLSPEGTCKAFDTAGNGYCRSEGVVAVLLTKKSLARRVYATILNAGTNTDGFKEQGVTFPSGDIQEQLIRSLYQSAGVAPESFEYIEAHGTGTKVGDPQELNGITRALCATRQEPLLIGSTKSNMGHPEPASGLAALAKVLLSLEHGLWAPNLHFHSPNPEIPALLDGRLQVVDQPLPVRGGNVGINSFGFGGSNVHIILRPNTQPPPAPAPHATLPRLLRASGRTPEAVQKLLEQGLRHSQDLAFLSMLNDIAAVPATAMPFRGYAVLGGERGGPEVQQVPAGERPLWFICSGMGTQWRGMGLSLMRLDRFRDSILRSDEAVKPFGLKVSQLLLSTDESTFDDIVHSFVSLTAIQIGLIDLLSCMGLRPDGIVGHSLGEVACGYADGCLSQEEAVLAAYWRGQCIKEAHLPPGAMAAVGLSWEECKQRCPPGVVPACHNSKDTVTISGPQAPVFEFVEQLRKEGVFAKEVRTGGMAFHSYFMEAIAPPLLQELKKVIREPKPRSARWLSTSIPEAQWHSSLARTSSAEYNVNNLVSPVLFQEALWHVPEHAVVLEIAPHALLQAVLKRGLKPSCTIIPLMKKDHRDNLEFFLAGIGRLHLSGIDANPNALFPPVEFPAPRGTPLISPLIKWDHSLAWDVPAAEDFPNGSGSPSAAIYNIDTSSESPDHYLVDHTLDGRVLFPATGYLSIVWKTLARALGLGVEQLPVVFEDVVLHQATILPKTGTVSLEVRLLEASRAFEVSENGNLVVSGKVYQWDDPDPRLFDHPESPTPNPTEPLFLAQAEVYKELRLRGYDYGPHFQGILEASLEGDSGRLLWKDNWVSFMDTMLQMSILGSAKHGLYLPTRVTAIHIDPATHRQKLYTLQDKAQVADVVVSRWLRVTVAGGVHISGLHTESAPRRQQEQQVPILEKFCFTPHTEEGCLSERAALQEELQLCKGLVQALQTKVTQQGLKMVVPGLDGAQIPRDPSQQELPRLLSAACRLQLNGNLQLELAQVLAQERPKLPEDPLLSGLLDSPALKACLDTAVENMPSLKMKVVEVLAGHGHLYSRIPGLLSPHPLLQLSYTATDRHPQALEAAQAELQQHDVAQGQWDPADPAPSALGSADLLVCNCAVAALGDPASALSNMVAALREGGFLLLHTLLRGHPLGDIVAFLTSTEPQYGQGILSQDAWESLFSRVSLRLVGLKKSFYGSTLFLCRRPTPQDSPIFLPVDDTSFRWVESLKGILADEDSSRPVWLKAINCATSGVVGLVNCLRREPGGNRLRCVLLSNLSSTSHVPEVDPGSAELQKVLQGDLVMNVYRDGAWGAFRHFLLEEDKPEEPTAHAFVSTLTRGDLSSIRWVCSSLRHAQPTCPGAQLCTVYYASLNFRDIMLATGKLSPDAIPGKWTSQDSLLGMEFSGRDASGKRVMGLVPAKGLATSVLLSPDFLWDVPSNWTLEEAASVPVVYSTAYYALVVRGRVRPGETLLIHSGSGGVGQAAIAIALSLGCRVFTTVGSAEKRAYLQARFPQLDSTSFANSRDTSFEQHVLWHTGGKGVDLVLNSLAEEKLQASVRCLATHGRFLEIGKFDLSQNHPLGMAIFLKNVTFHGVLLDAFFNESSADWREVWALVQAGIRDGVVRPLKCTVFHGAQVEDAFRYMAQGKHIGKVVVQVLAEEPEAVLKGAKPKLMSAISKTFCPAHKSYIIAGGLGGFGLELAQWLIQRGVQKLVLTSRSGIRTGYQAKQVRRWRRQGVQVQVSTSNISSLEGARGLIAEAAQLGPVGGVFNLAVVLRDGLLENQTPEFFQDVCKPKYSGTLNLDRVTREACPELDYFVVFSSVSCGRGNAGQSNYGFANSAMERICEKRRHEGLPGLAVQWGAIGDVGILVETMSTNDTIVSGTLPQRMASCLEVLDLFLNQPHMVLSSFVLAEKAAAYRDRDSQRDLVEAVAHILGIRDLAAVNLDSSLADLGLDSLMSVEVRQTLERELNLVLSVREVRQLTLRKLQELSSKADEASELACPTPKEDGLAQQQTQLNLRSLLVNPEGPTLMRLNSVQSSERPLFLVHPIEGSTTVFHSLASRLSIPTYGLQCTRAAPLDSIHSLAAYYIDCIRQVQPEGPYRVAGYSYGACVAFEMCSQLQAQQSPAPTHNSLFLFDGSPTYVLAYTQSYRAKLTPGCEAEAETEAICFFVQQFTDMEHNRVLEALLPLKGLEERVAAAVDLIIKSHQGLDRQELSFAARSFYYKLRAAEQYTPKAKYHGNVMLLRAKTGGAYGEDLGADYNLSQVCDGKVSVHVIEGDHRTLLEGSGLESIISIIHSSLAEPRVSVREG
Cytochrome P450 3A4, sequence (P08684 whole entry): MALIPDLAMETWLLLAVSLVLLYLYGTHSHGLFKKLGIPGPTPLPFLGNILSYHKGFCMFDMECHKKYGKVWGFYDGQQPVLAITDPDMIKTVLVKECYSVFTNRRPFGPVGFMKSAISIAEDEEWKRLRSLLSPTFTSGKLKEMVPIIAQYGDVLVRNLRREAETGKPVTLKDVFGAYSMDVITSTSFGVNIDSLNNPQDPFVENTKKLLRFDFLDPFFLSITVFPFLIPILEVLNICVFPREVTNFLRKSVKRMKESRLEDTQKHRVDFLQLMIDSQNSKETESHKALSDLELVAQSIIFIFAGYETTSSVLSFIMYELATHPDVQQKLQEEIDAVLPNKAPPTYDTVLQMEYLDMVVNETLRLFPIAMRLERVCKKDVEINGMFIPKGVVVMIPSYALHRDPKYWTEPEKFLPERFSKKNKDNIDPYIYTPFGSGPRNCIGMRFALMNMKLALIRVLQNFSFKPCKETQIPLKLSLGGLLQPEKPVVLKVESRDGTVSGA
Genome polyprotein, sequence (P29990 2492-3391 limits assumed): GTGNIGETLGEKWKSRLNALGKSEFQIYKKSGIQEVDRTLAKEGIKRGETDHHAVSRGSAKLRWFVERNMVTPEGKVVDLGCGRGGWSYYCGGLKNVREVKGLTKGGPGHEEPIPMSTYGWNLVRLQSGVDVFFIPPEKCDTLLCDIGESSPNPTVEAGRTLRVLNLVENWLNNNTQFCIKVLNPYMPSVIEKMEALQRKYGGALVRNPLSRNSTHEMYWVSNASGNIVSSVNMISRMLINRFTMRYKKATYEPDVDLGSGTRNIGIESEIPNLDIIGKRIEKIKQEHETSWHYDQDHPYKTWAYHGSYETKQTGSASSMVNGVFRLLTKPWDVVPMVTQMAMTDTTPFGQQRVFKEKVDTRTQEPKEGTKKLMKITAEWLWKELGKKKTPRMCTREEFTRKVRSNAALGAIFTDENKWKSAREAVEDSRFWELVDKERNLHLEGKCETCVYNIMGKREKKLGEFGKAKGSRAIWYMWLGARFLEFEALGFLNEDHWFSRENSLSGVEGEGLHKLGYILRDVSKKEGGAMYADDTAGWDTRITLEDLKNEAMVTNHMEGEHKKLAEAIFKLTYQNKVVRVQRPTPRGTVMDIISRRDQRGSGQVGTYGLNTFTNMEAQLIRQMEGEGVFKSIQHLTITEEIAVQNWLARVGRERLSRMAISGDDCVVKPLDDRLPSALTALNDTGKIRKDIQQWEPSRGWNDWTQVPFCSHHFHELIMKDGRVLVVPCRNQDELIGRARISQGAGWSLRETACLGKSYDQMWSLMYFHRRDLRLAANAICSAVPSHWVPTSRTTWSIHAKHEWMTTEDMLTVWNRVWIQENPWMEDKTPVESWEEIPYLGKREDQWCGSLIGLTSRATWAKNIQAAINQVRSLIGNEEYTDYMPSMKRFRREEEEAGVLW

SMILES: COc1cccc(/C=C2\C(=O)C(=O)c3ccccc32)c1
- IC50 (Genome polyprotein): 12.9 µM (active)
- IC50 [1]: > 66 µM (inactive)
- IC50 [2]: > 66 µM (inactive)
- IC50 [3]: 47.3 µM (active)

SMILES: O=C(CC1NCCNC1=O)Nc1ccc(Oc2ccccc2)cc1 (stereo unspecified)
- EC50 [6]: 8.83 µM (active)

SMILES: COc1ccc(N2CCN(C(=O)CC(NC(N)=O)c3cccc(Oc4ccccc4)c3)CC2)cc1 (stereo unspecified)
- EC50 [6]: 13.7 µM (active)

SMILES: COc1ccc(NC(=O)Nc2ccc3c(c2)C(=O)N([C@@H](C)CO)C[C@H](C)[C@H](CN(C)S(=O)(=O)c2ccc(C)cc2)O3)cc1
- AC50 [7]: 6.5 µM (active)
- AC50 [8]: 17.5 µM (active)
- AC50 [9]: 23 µM (active)

SMILES: c1ccc2c3c([nH]c2c1)CNCC3 [TRYPTOLINE]
- CC50 [11]: 28.7 µM (active)

SMILES: C[C@H]1CN([C@@H](C)CO)S(=O)(=O)c2ccc(Br)cc2O[C@H]1CN(C)Cc1ccccc1
- AC50 [7]: 23.5 µM (active)
- AC50 [8]: 20.6 µM (active)
- AC50 [9]: 33.4 µM (active)

SMILES: O=C(c1cccc(C(F)(F)F)c1)C1CCCN(C(=O)CCCN2CCCC2=O)C1 (stereo unspecified)
- CC50 [11]: > 40 µM (active)

SMILES: CC1CCN(c2ccc([N+](=O)[O-])c(SCCO)c2)CC1
- CC50 [11]: > 40 µM (active)

SMILES: CC[C@]1(C(=O)OC)[C@H]2C(=O)N(Cc3ccccc3)C(=O)[C@H]2[C@H]2CN=C(SCC(=O)c3ccccc3)N21
- IC50 [1]: > 66 µM (inactive)
- IC50 [2]: > 66 µM (inactive)

Other lines, results leading:

- IC50 (Fatty acid synthase [4]): 4.91 µM (active)
- IC50 (Fatty acid synthase [5]): 2.51 µM (active)
SMILES: Cc1nn(Cc2ccc([N+](=O)[O-])cc2)c(=O)n1N(C)c1ncc(C(F)(F)F)cc1Cl

- IC50 (Fatty acid synthase [4]): 15.2 µM (active)
- IC50 (Fatty acid synthase [5]): 10.3 µM (active)
SMILES: CN1C(C(=O)NCc2cccc(Br)c2)CC2Cn3c(nc4cc(Cl)c(Cl)cc43)C21 (stereo unspecified)

- IC50 [1]: > 66 µM (inactive)
- IC50 [2]: > 66 µM (inactive)
SMILES: O=C(NC(=S)Nc1ccccc1Cl)c1cncc(Br)c1

- IC50 [1]: > 66 µM (inactive)
- IC50 [2]: > 66 µM (inactive)
SMILES: CCN(CC)CCSC(=O)C(c1ccccc1)c1ccccc1

- EC50 [6]: 6.86 µM (active)
- AC50 (Cytochrome P450 1A2): 25.1 µM (inconclusive)
- AC50 (Cytochrome P450 3A4): 28.2 µM (inconclusive)
SMILES: CC(C)c1ccc(CN(C(=O)C2COc3ccccc3O2)C2CCS(=O)(=O)C2)cc1 (stereo unspecified)

- IC50 (Fatty acid synthase [4]): 33.6 µM (inactive)
- IC50 (Fatty acid synthase [5]): 55.8 µM (inactive)
SMILES: COC(=O)C(CCCCNC(=O)c1ccc([N+](=O)[O-])cc1)NC(=O)c1ccc([N+](=O)[O-])cc1 (stereo unspecified)

- EC50 [10]: 0.0013 µM (active)
- IC50 (Fatty acid synthase [4]): 15.3 µM (active)
- IC50 (Fatty acid synthase [5]): 7.29 µM (active)
SMILES: O=C(COc1ccc(Cl)cc1)Nc1ccc(C(=O)O)cc1NC(=O)COc1ccc(Cl)cc1

- IC50 (Fatty acid synthase [4]): 5.18 µM (active)
- IC50 (Fatty acid synthase [5]): 4.85 µM (active)
SMILES: COC(=O)N1C(=O)[C@](Cc2ccccc2)(c2ccccc2)N1C(=O)OC

- EC50 [6]: 5.14 µM (active)
SMILES: Cc1ccc(-c2noc(CN(C(=O)C(c3ccccc3)c3ccccc3)C(C)C)n2)cc1

From ChEMBL document CHEMBL1201862, “PubChem BioAssay data set” (2004)
